Laboratory results from patent US7429607B2, “5-HT2B receptor antagonists” (Asterand UK Limited, priority 2002, dated 2008).

Columns and labels:
[1] = biological target: T1, cloned human 5-HT2A receptor (Homo sapiens, UniProt P28223); assay: Human 5-HT2A receptor binding assay ([3H]ketanserin, CHO-K1 membranes); conditions: displacement of [3H]ketanserin (1 nM), read-out: 5-HT2A pKi (converted)
T1 construct: purchased Euroscreen; host or cells: CHO-K1 cells
Experimental: (§1) The binding affinity of ligands for human 5-HT2A and 5-HT2C receptors was determined using the following assay.
Membrane preparations from CHO-K1 cells expressing the cloned human 5-HT2A receptor were obtained (Euroscreen). The membranes were thawed rapidly and diluted in assay buffer containing Tris-HCl (50 mM, pH 7.7). The membranes were resuspended by homogenisation, prior to adding 15 μg of membranes to assay wells containing [3H] ketanserin (1 nM), assay buffer (50 mM Tris at pH 7.4) containing pargyline (10 μM), and test compounds (1×10^−10 to 1×10^−4M). Non specific binding was determined in the presence of 100 μM mianserin. After 15 minutes incubation at 37° C., the assay mixture was filtered through a combination of GF-C and GF-B filters, pre-soaked in 0.05% Brij, using a Brandel cell harvester, and were washed three times using ice cold Tris-HCl buffer (50 mM). Radioactivity retained on the filters was determined by liquid scintillation counting. For each test compound, the concentration that inhibited binding of [^3H]ketanserin by 50% was determined using curve fitting software (Prism). Kd values (concentration of ketanserin required to occupy 50% of the receptor binding sites at equlibrium) determined from saturation binding studies were then used to calculate inhibition dissociation constants (Ki) using the following equation: […]

[2] = biological target: T2, cloned human 5-HT2C receptor (Homo sapiens, UniProt P28335); assay: Human 5-HT2C receptor binding assay ([3H]mesulergine, CHO-K1 membranes); conditions: displacement of [3H]mesulergine (1 nM), read-out: 5-HT2C pKi (converted)
T2 construct: purchased Euroscreen; host or cells: CHO-K1 cells
T2 sequence (P28335 33-458): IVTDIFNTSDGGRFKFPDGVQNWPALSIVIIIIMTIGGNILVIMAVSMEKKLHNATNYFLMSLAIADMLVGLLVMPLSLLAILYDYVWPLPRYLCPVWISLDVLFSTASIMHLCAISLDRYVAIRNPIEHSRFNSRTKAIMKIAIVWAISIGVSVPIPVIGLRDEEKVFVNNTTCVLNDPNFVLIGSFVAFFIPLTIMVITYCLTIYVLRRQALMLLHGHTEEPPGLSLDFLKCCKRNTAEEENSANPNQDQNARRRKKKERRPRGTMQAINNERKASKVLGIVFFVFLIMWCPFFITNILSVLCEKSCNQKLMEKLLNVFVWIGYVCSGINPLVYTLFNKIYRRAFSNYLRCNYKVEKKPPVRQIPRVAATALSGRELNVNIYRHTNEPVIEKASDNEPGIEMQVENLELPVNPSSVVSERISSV
Experimental: as §1
Membrane preparations from CHO-K1 cells expressing the cloned human 5-HT2C receptor were obtained (Euroscreen). The membranes were thawed rapidly and diluted in assay buffer containing Tris-HCl (50 mM, pH 7.7), ascorbic acid (0.1%) and pargyline (10 μM). The membranes were resuspended by homogenisation, prior to adding 6 μg of membranes to assay wells containing [^3H] mesulergine (1 nM), assay buffer (50 mM Tris at pH 7.7 and 0.1% ascorbic acid) containing pargyline (10 μM), and test compounds (1×10^−10 to 1×10^−4M). Non specific binding was determined in the presence of 100 μM mianserin. After 30 minutes incubation at 37° C., the assay mixture was filtered through a combination of GF-C and GF-B filters, pre-soaked in 1% bovine serum albumin, using a Brandel cell harvester, and were washed three times using ice cold Tris-HCl buffer (50 mM). Radioactivity retained on the filters was determined by liquid scintillation counting. For each test compound, the concentration that inhibited binding of [3H]mesulergine by 50% was determined using curve fitting software (Prism). Kd values (concentration of mesulergine required to occupy 50% of the receptor binding sites at equlibrium) determined from saturation binding studies were then used to calculate inhibition dissociation constants (Ki) using the following equation: […]

[3] = biological target: T3, 5-HT2B receptor in human tissues (Homo sapiens, UniProt P41595); assay: Human 5-HT2B receptor tissue based functional assay (human colon longitudinal smooth muscle); format: cell-based; conditions: antagonism of 5-HT effect on electrically stimulated human colon longitudinal muscle; pKB=log(CR-1)-log(antagonist concentration)
T3 construct: from tissue; host or cells: human colon longitudinal smooth muscle strips
T3 sequence (P41595 whole entry): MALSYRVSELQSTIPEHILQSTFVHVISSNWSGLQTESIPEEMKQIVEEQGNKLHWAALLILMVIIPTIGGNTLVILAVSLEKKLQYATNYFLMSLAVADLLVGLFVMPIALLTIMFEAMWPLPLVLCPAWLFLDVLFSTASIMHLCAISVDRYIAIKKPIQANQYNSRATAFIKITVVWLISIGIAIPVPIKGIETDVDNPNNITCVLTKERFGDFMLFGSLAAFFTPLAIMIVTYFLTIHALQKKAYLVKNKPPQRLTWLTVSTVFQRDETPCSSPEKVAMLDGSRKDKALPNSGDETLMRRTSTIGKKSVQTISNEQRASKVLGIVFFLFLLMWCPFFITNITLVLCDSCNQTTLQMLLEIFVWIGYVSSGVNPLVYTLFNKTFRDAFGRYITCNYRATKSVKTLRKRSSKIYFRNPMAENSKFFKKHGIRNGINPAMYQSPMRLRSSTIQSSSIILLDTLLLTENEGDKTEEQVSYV
Experimental: An in vitro functional assay, using human colon smooth muscle, was carried out to determine the affinity of the test compounds at the 5-HT2B receptor in human tissues. Sections of human colon were cut open along their longitudinal axis. The sections were pinned out flat and the mucosa carefully removed using sharp dissecting scissors. Once the mucosa was removed, the section was turned over to reveal the three taenia coli (taenia mesencolica, taenia omentalis and taenia libera) and the muscle bands that lie between them. Longitudinal muscle strips (2 mm wide by 20 mm long) were then cut from the tissue between the taenia coli and suspended between stainless steel hooks in organ chambers containing oxygenated (95% O2/5% CO2) Krebs solution at 37° C. The composition of the Krebs solution was as follows: NaCl (118.2 mM), KCl (4.69 mM), MgSO4.7H2O (1.18 mM), KH2PO4 (1.19 mM), glucose (11.1 mM), NaHCO3 (25.0 mM), CaCl2.6H2O (2.5 mM). Tissues were placed under a load equivalent to 10 mN and left to equilibrate for a period of at least 60 minutes. Responses were recorded using isometric transducers coupled to an Apple Macintosh computer via a MacLab interface. After 60 minutes, the longitudinal muscle sections of the human colon were stimulated electrically (sub-maximal voltage and frequency with 60s between successive stimulations) using parallel platinum wire electrodes and a Multistim D330 pulse stimulator. Upon electrical stimulation, the strips of human colon longitudinal smooth muscle responded with a rapid contraction. Once the response to electrical stimulation had stabilised (stimulated responses differed by no more than 10%), the strips were exposed to increasing concentrations of 5-HT (1×10^−9 to 1×10^−5M), in the absence or presence of test compounds (1×10^−7 to 1×10^−5M, incubated for 30 minutes). To determine the affinity of the compounds, the concentration of 5-HT required to produce half-maximal effects (EC50) was calculated in the absence and presence of test compound. The antagonist affinity was calculated by dividing the EC50 for 5-HT in the presence of antagonist by the EC50 for 5-HT in the absence of antagonist to yield a concentration ratio (CR). The results are shown in table 2 below as a pKB value, which is calculated as follows: pKB=log(CR−1)−log(antagonist concentration). This approach follows that set out in Kenakin, T. P. Pharmacologic analysis of drug-receptor interaction. Raven Press, New York, 2nd Edition.

T1 sequence (P28223 whole entry): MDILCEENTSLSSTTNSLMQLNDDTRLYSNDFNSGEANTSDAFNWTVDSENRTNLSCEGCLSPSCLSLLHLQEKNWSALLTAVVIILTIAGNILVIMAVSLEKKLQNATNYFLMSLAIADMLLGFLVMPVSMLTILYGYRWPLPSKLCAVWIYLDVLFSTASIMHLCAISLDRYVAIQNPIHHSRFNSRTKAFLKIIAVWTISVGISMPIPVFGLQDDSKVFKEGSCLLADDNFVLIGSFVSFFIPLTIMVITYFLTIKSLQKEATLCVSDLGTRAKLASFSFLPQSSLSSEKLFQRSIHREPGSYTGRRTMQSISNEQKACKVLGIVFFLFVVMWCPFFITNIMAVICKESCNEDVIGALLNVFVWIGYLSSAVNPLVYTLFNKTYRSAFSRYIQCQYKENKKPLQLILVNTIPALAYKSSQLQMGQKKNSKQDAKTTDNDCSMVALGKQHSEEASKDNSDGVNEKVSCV

Row | Structure (SMILES) | Ki [1] | Ki [2] | melting point | Kb [3]
1 | Nc1nc(-c2cccc3ccccc23)co1 [Compound 1, 2-amino-4-(naphth-1-yl)oxazole] | > 10000 nM | > 1000 nM | 155 to 162 °C | < 100 nM
2 | Cc1ccc2ccccc2c1-c1coc(N)n1 [Compound 6, 2-amino-4-(2′-methylnaphth-1-yl)oxazole] | > 1000 nM | > 1000 nM | – | < 100 nM
3 | CC(C)c1nc(N)oc1-c1cccc2ccccc12 [Compound 7, 2-amino-4-isopropyl-5-(naphth-1-yl)oxazole] | > 100 nM | > 1000 nM | 127 to 129 °C | < 10 nM
4 | COc1ccc2ccccc2c1-c1coc(N)n1 [Compound 17, 4-(2-methoxy-naphthalen-1-yl)-oxazol-2-ylamine] | > 1000 nM | > 100 nM | – | < 10 nM
5 | CC(C)c1nc(N)oc1-c1ccc(F)c2ccccc12 [Compound 31, 2-amino-5-(4′-fluoronaphth-1-yl)-4-isopropyloxazole] | > 1000 nM | > 1000 nM | 141 °C | < 100 nM
